Laboratory results: patent publication US20180214449A1, “CANCER THERAPY USING JAK INHIBITOR IN COMBINATION WITH MAPK INHIBITORS” (UBRX, INC., priority 2015, published 2018)

Columns and labels:
[1] = test system: mouse T-cell lymphoma cells; conditions: read-out: IC50, IL-2 and IL-4-dependent proliferation; cited from earlier work
[2] = test system: other protein tyrosine kinases; conditions: read-out: IC50s for other protein tyrosine kinases; units printed within the range (nM to μM); cited from earlier work
[3] = test system: B-Raf inhibitor resistant cells A375 or Lu1205R; assay: Growth in soft agar of B-Raf inhibitor resistant cells; type: cell-based, human; conditions: two weeks in soft agar
Experimental: Melanoma cells A375 and Lu1205 were cultured in Dulbecco's modified Eagle's medium (DMEM) supplemented with 10% fetal bovine serum (FBS), and penicillin-streptomycin. The melanoma UACC cell lines (UACC91, UACC502, UACC612, UACC647, and UACC1113) were maintained in Rosewell Park Memorial Institute Medium (RPMI1640) supplemented with 10% FBS and penicillin-streptomycin.

[4] = test system: UACC558; assay: IC50 to B-Raf inhibitors in melanoma cell line; type: cell-based; conditions: Homo sapiens
[5] = test system: UACC2641; assay: IC50 to B-Raf inhibitors in melanoma cell line; type: cell-based; conditions: Homo sapiens
[6] = test system: UACC3291; assay: IC50 to B-Raf inhibitors in melanoma cell line; type: cell-based; conditions: Homo sapiens
[7] = test system: UACC257; assay: IC50 to B-Raf inhibitors in melanoma cell line; type: cell-based; conditions: Homo sapiens, UACC-257
[8] = test system: UACC903; assay: IC50 to B-Raf inhibitors in melanoma cell line; type: cell-based; conditions: Homo sapiens, UACC-903
[9] = test system: UACC1308; assay: IC50 to B-Raf inhibitors in melanoma cell line; type: cell-based; conditions: Homo sapiens
[10] = test system: UACC612; assay: IC50 to B-Raf inhibitors in melanoma cell line; type: cell-based; conditions: Homo sapiens
Experimental: (§1) Melanoma cells A375 and Lu1205 were cultured in Dulbecco's modified Eagle's medium (DMEM) supplemented with 10% fetal bovine serum (FBS), and penicillin-streptomycin. The melanoma UACC cell lines (UACC91, UACC502, UACC612, UACC647, and UACC1113) were maintained in Rosewell Park Memorial Institute Medium (RPMI1640) supplemented with 10% FBS and penicillin-streptomycin. In order to develop resistance to B-Raf inhibitor PLX-4032, the cells were grown with increasing concentrations of the inhibitor at each passage and eventually maintained in appropriate media containing either 5 μM (for A375 and Lu1205 cells) or 1 μM (for UACC cells) PLX-4032.
(§2) Melanoma cell lines UACC91, UACC502, UACC612, UACC647, and UACC1113 were treated with B-Raf inhibitors PLX-4032 or PLX-4720, and the IC50 values were correlated with RNF125 expression levels. The RNF125 expression was determined using RNA-Sequencing (RNA-Seq) methods and expressed in fragments per kilobase per million reads unit (FPKM).

[11] = test system: UACC91; assay: IC50 to B-Raf inhibitors in melanoma cell line; type: cell-based; conditions: Homo sapiens
Experimental: as §1, §2

[12] = test system: UACC647; assay: IC50 to B-Raf inhibitors in melanoma cell line; type: cell-based; conditions: Homo sapiens
Experimental: as §1, §2

[13] = test system: UACC502; assay: IC50 to B-Raf inhibitors in melanoma cell line; type: cell-based; conditions: Homo sapiens
Experimental: as §1, §2

[14] = target: JAK2 (Homo sapiens, UniProt O60674); conditions: cited from earlier work
[15] = test system: JAK1; conditions: cited from earlier work
[16] = test system: melanoma patients; conditions: clinical trial data; cited from earlier work
[17] = test system: A375, Lu1205, and several UACC melanoma cell lines resistant to BRAF inhibitors or BRAF and MEK inhibitors; assay: Example 2: growth in soft agar of resistant melanoma cells; type: cell-based, human; conditions: two weeks in soft agar, 0-10 μM
Experimental: The cells are grown for two weeks in soft agar, in the presence of 0-10 μM of ruxolitinib (JAK1 inhibitor), dabrafenib (BRAF inhibitor), trametinib (MEK inhibitor) as single agents or in combination therapies, using a constant volume of inhibitor for all the conditions.

Chain of JAK2 (O60674 whole entry, species assumed): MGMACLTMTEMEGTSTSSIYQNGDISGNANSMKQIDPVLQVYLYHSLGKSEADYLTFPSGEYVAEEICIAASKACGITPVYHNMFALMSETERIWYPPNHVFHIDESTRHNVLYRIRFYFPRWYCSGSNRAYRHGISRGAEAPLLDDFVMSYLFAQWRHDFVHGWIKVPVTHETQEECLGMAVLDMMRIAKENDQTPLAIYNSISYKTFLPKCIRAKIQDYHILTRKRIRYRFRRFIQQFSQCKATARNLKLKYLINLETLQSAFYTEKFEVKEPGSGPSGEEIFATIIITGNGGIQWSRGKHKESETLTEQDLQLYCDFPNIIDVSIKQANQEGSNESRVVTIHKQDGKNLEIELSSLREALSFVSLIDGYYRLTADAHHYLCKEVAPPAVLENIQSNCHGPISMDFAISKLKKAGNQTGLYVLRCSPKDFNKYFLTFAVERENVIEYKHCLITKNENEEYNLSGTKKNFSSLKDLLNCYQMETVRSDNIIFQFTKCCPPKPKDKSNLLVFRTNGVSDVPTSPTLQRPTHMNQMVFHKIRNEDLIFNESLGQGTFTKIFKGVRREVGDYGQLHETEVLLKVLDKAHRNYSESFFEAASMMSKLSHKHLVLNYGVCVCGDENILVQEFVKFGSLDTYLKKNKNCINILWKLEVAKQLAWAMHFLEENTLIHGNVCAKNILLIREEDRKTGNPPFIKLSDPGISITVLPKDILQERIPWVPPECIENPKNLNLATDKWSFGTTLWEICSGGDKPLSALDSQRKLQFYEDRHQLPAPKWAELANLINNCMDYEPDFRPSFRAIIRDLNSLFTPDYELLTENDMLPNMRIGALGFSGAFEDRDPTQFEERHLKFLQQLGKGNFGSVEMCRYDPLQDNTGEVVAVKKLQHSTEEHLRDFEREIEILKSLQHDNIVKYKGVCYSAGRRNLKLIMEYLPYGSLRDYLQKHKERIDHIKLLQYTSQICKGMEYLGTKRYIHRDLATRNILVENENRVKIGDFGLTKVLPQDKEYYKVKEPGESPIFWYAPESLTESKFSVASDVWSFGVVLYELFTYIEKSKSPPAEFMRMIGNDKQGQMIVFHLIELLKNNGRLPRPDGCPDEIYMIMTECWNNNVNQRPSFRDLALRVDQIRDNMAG

IC50 [4] [µM] | IC50 [5] [µM] | IC50 [6] [µM] | IC50 [7] [µM] | IC50 [8] [µM] | IC50 [9] [µM] | IC50 [10] [µM] | IC50 [11] [µM] | IC50 [12] [µM] | IC50 [13] [µM] | SMILES | growth in soft agar [3] | also measured
– | – | – | – | – | – | – | – | – | – | CC(C)(C)c1nc2c3cc[nH]c(=O)c3c3cc(F)ccc3c2[nH]1 [Pyridone 6] | – | IC50 [1]: 0.05 to 0.1 µM; IC50 [2]: ≥ 130 nM
– | – | – | – | – | – | – | – | – | – | COc1cc2ncnc(Nc3ccc(F)c(Cl)c3)c2cc1OCCCN1CCOCC1 [Gefitinib] | did not inhibit growth | –
0.42 | 4.59 | 0.09 | 0.14 | 0.25 | 0.09 | 5.48 | 0.532 | 6.72 | 0.78 | CCCS(=O)(=O)Nc1ccc(F)c(C(=O)c2c[nH]c3ncc(Cl)cc23)c1F [PLX-4702] | – | –
0.69 | 5.88 | 0.06 | 0.15 | 0.25 | 0.06 | 3.78 | 0.301 | 3.37 | 0.55 | CCCS(=O)(=O)Nc1ccc(F)c(C(=O)c2c[nH]c3ncc(-c4ccc(Cl)cc4)cc23)c1F [PLX-4032, vemurafenib] | – | –
– | – | – | – | – | – | – | – | – | – | Cc1cc(Nc2nc(N[C@@H](C)c3ncc(F)cn3)ncc2Cl)n[nH]1 [AZD1480] | did not inhibit growth | IC50 [14]: 0.00026 µM; IC50 [15]: 0.0013 µM
– | – | – | – | – | – | – | – | – | – | CC(C)(C)c1nc(-c2cccc(NS(=O)(=O)c3c(F)cccc3F)c2F)c(-c2ccnc(N)n2)s1 [dabrafenib] | – | time until resistance occurs [16]: 6 to 7 months; growth of the melanoma cells in soft agar [17]: does not block the growth
